#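 Briefly, cells in 96-well plates were exposed to five compound concentrations for 48 h, and endpoints were estimated by linear interpolation. Here, GI50 denotes the concentration required for 50% inhibition of growth. At the TGI there is no net growth.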
# How the values were obtained:
# Assay in all cases: NCI anticancer screen, dose series, 48 h
# SK-MEL-28 melanoma = system: SK-MEL-28 melanoma
# HOP-92 NSCLC = system: HOP-92 NSCLC
# A498 renal = system: A498 renal
# T-47D breast = system: T-47D breast
# OVCAR-8 ovarian = system: OVCAR-8 ovarian
# DU-145 prostate = system: DU-145 prostate
# SK-OV-3 ovarian = system: SK-OV-3 ovarian
# NCI/ADR-RES ovarian = system: NCI/ADR-RES ovarian
# HCT-116 colon = system: HCT-116 colon
# IGROV1 ovarian = system: IGROV1 ovarian
# 786-0 renal = system: 786-0 renal
# PC-3 prostate = system: PC-3 prostate
# MDA-MB-231 breast = system: MDA-MB-231 breast
# ACHN renal = system: ACHN renal
# COLO 205 colon = system: COLO 205 colon
# SF-539 CNS = system: SF-539 CNS
# NCI-H522 lung = system: NCI-H522 lung
# SF-268 CNS = system: SF-268 CNS
# NCI-H226 lung = system: NCI-H226 lung
# OVCAR-4 ovarian = system: OVCAR-4 ovarian
# NCI-H460 lung = system: NCI-H460 lung
# SNB-75 CNS = system: SNB-75 CNS
# HS 578T breast = system: HS 578T breast
# SR leukemia = system: SR leukemia
# EKVX NSCLC = system: EKVX NSCLC
# K-562 leukemia = system: K-562 leukemia
# MOLT-4 leukemia = system: MOLT-4 leukemia
# HCC-2998 colon = system: HCC-2998 colon
# SN12C renal = system: SN12C renal
# KM12 colon = system: KM12 colon
# CCRF-CEM leukemia = system: CCRF-CEM leukemia
# SK-MEL-2 melanoma = system: SK-MEL-2 melanoma
# HT29 colon = system: HT29 colon
# UO-31 renal = system: UO-31 renal
# SW-620 colon = system: SW-620 colon
# UACC-62 melanoma = system: UACC-62 melanoma
# SK-MEL-5 melanoma = system: SK-MEL-5 melanoma
# BT-549 breast = system: BT-549 breast
# RXF 393 renal = system: RXF 393 renal
# SF-295 CNS = system: SF-295 CNS
# RPMI-8226 leukemia = system: RPMI-8226 leukemia
# HOP-62 NSCLC = system: HOP-62 NSCLC
# A549 NSCLC = system: A549 NSCLC
# NCI-H23 lung = system: NCI-H23 lung
# MDA-MB-435 = system: MDA-MB-435
# U251 CNS = system: U251 CNS
# SNB-19 CNS = system: SNB-19 CNS
# MCF7 breast = system: MCF7 breast
# TK-10 renal = system: TK-10 renal
# MALME-3M melanoma = system: MALME-3M melanoma
# LOX IMVI melanoma = system: LOX IMVI melanoma
# M14 melanoma = system: M14 melanoma
# OVCAR-5 ovarian = system: OVCAR-5 ovarian
# HCT-15 colon = system: HCT-15 colon
# HL-60(TB) leukemia = system: HL-60(TB) leukemia
# UACC-257 melanoma = system: UACC-257 melanoma
# OVCAR-3 ovarian = system: OVCAR-3 ovarian
structure (smiles),measurement,setting,value
CC(=O)OCC1OC(OC2C(COC(C)=O)OC(OCCC[S-])C(OC(C)=O)C2OC(C)=O)C(OC(C)=O)C(OC(C)=O)C1OC(C)=O.[Au+].c1ccc(CN2[CH-]N(Cc3ccccc3)C(c3ccccc3)=C2c2ccccc2)cc1 (centres undefined),GI50,SK-MEL-28 melanoma,3.53 µM
same,TGI,SK-MEL-28 melanoma,18.5 µM
same,GI50,HOP-92 NSCLC,2.37 µM
same,TGI,HOP-92 NSCLC,6.24 µM
same,GI50,A498 renal,3.41 µM
same,TGI,A498 renal,11.1 µM
same,GI50,T-47D breast,3.28 µM
same,TGI,T-47D breast,18.5 µM
same,GI50,OVCAR-8 ovarian,3.75 µM
same,TGI,OVCAR-8 ovarian,> 100 µM
same,GI50,DU-145 prostate,4.5 µM
same,TGI,DU-145 prostate,17 µM
same,GI50,SK-OV-3 ovarian,3.06 µM
same,TGI,SK-OV-3 ovarian,12.6 µM
same,GI50,NCI/ADR-RES ovarian,19.5 µM
same,TGI,NCI/ADR-RES ovarian,> 100 µM
same,GI50,HCT-116 colon,2.72 µM
same,TGI,HCT-116 colon,10.9 µM
same,GI50,IGROV1 ovarian,3.06 µM
same,TGI,IGROV1 ovarian,16 µM
same,GI50,786-0 renal,2.8 µM
same,TGI,786-0 renal,8.56 µM
same,GI50,PC-3 prostate,3.28 µM
same,TGI,PC-3 prostate,15 µM
same,GI50,MDA-MB-231 breast,2.38 µM
same,TGI,MDA-MB-231 breast,5.93 µM
same,GI50,ACHN renal,2.9 µM
same,TGI,ACHN renal,10.6 µM
same,GI50,COLO 205 colon,2.68 µM
same,TGI,COLO 205 colon,7.61 µM
same,GI50,SF-539 CNS,4.46 µM
same,TGI,SF-539 CNS,17.6 µM
same,GI50,NCI-H522 lung,1.72 µM
same,TGI,NCI-H522 lung,4.55 µM
same,GI50,SF-268 CNS,5.2 µM
same,TGI,SF-268 CNS,24.9 µM
same,GI50,NCI-H226 lung,4.68 µM
same,TGI,NCI-H226 lung,33 µM
same,GI50,OVCAR-4 ovarian,3.45 µM
same,TGI,OVCAR-4 ovarian,22.9 µM
same,GI50,NCI-H460 lung,3.45 µM
same,TGI,NCI-H460 lung,12.8 µM
same,GI50,SNB-75 CNS,2.86 µM
same,TGI,SNB-75 CNS,17 µM
same,GI50,HS 578T breast,9.16 µM
same,TGI,HS 578T breast,87.7 µM
same,GI50,SR leukemia,2.61 µM
same,TGI,SR leukemia,20.6 µM
same,GI50,EKVX NSCLC,3.15 µM
same,TGI,EKVX NSCLC,15.9 µM
same,GI50,K-562 leukemia,3.27 µM
same,TGI,K-562 leukemia,14.5 µM
same,GI50,MOLT-4 leukemia,3.42 µM
same,TGI,MOLT-4 leukemia,26 µM
same,GI50,HCC-2998 colon,3.49 µM
same,TGI,HCC-2998 colon,15.4 µM
same,GI50,SN12C renal,3.32 µM
same,TGI,SN12C renal,15 µM
same,GI50,KM12 colon,3.8 µM
same,TGI,KM12 colon,16.1 µM
same,GI50,CCRF-CEM leukemia,3.39 µM
same,TGI,CCRF-CEM leukemia,21.5 µM
same,GI50,SK-MEL-2 melanoma,2.99 µM
same,TGI,SK-MEL-2 melanoma,8.92 µM
same,GI50,HT29 colon,3.23 µM
same,TGI,HT29 colon,13.6 µM
same,GI50,UO-31 renal,2.61 µM
same,TGI,UO-31 renal,10.7 µM
same,GI50,SW-620 colon,3.68 µM
same,TGI,SW-620 colon,13.8 µM
same,GI50,UACC-62 melanoma,2.63 µM
same,TGI,UACC-62 melanoma,8.96 µM
same,GI50,SK-MEL-5 melanoma,1.97 µM
same,TGI,SK-MEL-5 melanoma,4.41 µM
same,GI50,BT-549 breast,3.37 µM
same,TGI,BT-549 breast,14.8 µM
same,GI50,RXF 393 renal,3.28 µM
same,TGI,RXF 393 renal,12.3 µM
same,GI50,SF-295 CNS,2.14 µM
same,TGI,SF-295 CNS,7.3 µM
same,GI50,RPMI-8226 leukemia,2.78 µM
same,TGI,RPMI-8226 leukemia,11.1 µM
same,GI50,HOP-62 NSCLC,3.75 µM
same,TGI,HOP-62 NSCLC,18.2 µM
same,GI50,A549 NSCLC,4.29 µM
same,TGI,A549 NSCLC,25 µM
same,GI50,NCI-H23 lung,3.23 µM
same,TGI,NCI-H23 lung,14 µM
same,GI50,MDA-MB-435,3.18 µM
same,TGI,MDA-MB-435,13.6 µM
same,GI50,U251 CNS,2.77 µM
same,TGI,U251 CNS,7.47 µM
same,GI50,SNB-19 CNS,3.66 µM
same,TGI,SNB-19 CNS,15.2 µM
same,GI50,MCF7 breast,2.44 µM
same,TGI,MCF7 breast,9.58 µM
same,GI50,TK-10 renal,3.57 µM
same,TGI,TK-10 renal,14.8 µM
same,GI50,MALME-3M melanoma,2.19 µM
same,TGI,MALME-3M melanoma,6.56 µM
same,GI50,LOX IMVI melanoma,3.42 µM
same,TGI,LOX IMVI melanoma,13.6 µM
same,GI50,M14 melanoma,3.26 µM
same,TGI,M14 melanoma,14.5 µM
same,GI50,OVCAR-5 ovarian,5.67 µM
same,TGI,OVCAR-5 ovarian,27 µM
same,GI50,HCT-15 colon,3.17 µM
same,TGI,HCT-15 colon,12.2 µM
same,GI50,HL-60(TB) leukemia,2.49 µM
same,TGI,HL-60(TB) leukemia,6.43 µM
same,GI50,UACC-257 melanoma,3.44 µM
same,TGI,UACC-257 melanoma,10.4 µM
same,GI50,OVCAR-3 ovarian,2.62 µM
same,TGI,OVCAR-3 ovarian,8.48 µM
